{
  "source": "patent US20140294856A1",
  "about": "“COMBINATION TREATMENT COMPRISING A HDAC6 INHIBITOR AND AN AKT INHIBITOR” (priority 2011, published 2014)",
  "key": {"HDAC1": {"molecular_target": "HDAC1 (Homo sapiens, UniProt Q13547)", "sequence (Q13547 whole entry)": "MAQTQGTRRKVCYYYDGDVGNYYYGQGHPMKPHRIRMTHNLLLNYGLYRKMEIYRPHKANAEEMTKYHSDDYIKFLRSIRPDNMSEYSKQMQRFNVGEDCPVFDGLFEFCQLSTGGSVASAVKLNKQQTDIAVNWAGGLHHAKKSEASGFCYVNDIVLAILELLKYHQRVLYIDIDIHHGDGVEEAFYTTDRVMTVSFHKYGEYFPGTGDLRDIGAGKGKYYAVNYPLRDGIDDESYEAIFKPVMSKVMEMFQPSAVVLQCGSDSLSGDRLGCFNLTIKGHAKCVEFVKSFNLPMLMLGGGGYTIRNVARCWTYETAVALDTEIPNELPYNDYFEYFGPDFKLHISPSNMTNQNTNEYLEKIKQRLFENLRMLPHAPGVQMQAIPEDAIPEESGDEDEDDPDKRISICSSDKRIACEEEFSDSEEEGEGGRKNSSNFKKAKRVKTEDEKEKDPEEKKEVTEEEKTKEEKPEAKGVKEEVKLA", "experiment": "Enzyme inhibition activity, Fluor-de-Lys kit", "format": "biochemical"}, "HCT116 cells": {"test_system": "HCT116 cells", "experiment": "Acetylation biomarkers by western blotting (with washout)", "format": "cell-based, human", "experimental": "FIG. 1. HDAC-C1A irreversible activity. A. […] inhibitory activity of HDAC-C1A was tested using HeLa nuclear extracts and compared to the negative (reversible) control HDAC-C1B. B Growth inhibitory effect of the different compounds in HCT-116 cells at indicated time and compared to growth inhibitory after 72 hours of incubation.\nHSP90 protein expression was not altered (FIG. 2)."}, "[1]": {"test_system": "panel of 19 cancer cell lines", "experiment": "Growth inhibition, SRB assay, 72 hours", "format": "cell-based"}, "KELLY": {"test_system": "KELLY", "experiment": "Growth inhibition, SRB assay, 72 hours", "format": "cell-based", "details": "KELLY neuroblastoma"}, "[2]": {"experiment": "Pharmacokinetics following a single injection", "format": "in vivo", "experimental": "FIG. 4. Pharmacokinetic profile of HDAC-C1A following a single injection at 20 mg/kg.\nFIG. 22 (Table 3): Pharmacokinetic data of HDAC-C1A following a single injection.\n(§1) The drug was stable after oral, parenteral and intravenous administration for 24 h (last time point examined). […] The Cma and AUC0-24h following i.p. injection (20 mg/kg) were 3.2 μg/mL and 11.2 μg/mL*h, respectively. […] The acid instability of HDAC-C1A could therefore be improved by enteric coating as a means to avoid breakdown in the stomach. […] HDAC-C1A was also tested in HCT116 human colon cancer xenograft model using a refined dose and scheduling. […] This dose was non-toxic (no reduction in body weight) (FIG. 5.D). The acetylated form of α-tubulin (biomarker of response to HDAC6 inhibition) could be observed after 14 days of treatment and could be detected as early as 6 hours after the 1st injection (FIG. 5.E.). The acetylated form of Histone 3 (biomarker of response of class I histones) could be observed as early as 2 hours after the 1st injection and remain after 14 days of treatment (FIG. 5.E)."}, "[3]": {"test_system": "A2780 human ovarian cancer xenograft", "experiment": "Anti-tumour activity in A2780 xenograft model", "format": "in vivo", "experimental": "FIG. 5. Anti-tumour activity of HDAC-C1A in A2780 (A & B) and HCT116 (C & D) xenograft models (Tumours volumes relative to tumour volume at day 1 (A & C) and corresponding body weight (relative to body weight at day 1) (B & D)). E. Biomarkers screening at early time points following a single injection of HDAC-C1A in HCT116 xenograft at 40 mg/kg compared to a continuous 14 days treatment at the indicated dose. Tumours were excised 6 hours following the last injection.\nas §1"}, "IGROV-1": {"test_system": "IGROV-1", "experiment": "Phospho-AKT levels by western blotting", "format": "cell-based", "details": "ovarian cancer cell line IGROV-1"}, "ABCG2": {"molecular_target": "T1, ABCG2 (Homo sapiens, UniProt Q9UNQ0)", "T1 sequence (Q9UNQ0 1-655)": "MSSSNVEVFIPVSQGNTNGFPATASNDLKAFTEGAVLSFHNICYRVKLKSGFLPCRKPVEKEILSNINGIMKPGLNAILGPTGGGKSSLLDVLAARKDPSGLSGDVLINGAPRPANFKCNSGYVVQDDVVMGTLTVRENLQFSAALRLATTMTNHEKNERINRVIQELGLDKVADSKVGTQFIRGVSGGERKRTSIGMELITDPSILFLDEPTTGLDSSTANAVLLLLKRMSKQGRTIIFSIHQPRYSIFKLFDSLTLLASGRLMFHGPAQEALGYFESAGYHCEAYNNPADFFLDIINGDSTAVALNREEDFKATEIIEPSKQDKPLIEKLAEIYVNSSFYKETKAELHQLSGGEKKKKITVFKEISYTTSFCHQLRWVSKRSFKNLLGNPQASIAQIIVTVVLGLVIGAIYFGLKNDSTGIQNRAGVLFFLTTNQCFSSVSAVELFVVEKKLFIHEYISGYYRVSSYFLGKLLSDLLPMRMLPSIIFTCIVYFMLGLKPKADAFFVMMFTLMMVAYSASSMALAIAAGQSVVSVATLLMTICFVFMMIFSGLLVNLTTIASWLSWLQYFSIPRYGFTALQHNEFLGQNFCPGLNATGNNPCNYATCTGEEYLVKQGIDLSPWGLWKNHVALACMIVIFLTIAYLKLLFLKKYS", "experiment": "Impact of ABCG2 on cytotoxicity, SRB assay, MCF7-MX vs MCF7"}, "MRP1": {"molecular_target": "MRP1 (Homo sapiens, UniProt P33527)", "sequence (P33527 whole entry)": "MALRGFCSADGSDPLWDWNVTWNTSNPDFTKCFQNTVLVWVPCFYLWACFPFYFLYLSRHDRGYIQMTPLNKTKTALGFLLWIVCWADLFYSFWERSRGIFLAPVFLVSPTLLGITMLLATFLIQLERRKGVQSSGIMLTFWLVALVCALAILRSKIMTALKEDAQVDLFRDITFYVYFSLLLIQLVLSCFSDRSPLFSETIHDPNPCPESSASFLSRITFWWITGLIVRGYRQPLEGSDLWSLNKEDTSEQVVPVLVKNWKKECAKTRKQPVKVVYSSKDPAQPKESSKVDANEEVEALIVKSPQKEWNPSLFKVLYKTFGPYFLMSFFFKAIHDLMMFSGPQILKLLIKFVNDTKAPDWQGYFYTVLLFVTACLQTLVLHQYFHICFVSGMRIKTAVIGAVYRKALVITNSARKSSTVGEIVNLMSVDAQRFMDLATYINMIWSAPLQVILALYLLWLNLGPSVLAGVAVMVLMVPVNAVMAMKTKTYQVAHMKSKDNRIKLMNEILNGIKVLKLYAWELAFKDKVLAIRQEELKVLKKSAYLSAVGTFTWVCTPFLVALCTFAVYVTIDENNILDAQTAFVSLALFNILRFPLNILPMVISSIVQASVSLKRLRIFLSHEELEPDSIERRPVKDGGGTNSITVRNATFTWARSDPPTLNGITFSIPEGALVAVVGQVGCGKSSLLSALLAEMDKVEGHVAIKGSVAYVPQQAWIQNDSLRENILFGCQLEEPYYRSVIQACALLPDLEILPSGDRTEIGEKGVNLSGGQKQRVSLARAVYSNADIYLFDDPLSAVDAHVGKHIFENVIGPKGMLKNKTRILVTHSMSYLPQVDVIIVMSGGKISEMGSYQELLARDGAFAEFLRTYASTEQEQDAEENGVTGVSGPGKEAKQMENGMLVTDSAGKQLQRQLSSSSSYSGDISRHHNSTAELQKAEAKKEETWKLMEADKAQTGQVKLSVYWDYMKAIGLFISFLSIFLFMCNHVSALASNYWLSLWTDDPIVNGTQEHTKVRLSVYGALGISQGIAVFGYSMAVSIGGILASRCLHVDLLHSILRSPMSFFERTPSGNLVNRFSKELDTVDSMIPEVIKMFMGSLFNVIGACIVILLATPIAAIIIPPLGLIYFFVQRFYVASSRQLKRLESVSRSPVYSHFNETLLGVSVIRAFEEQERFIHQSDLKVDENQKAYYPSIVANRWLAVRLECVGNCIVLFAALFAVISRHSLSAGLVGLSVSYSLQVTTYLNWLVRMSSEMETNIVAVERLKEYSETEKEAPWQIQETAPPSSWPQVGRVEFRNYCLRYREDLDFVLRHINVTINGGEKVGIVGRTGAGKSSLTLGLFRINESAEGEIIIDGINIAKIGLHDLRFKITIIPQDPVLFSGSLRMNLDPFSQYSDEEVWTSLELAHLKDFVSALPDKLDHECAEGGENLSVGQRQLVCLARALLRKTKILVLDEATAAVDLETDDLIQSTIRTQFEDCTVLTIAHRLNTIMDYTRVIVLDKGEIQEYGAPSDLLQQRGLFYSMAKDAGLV", "experiment": "Impact of MRP1 on cytotoxicity, MK-571 pre-treatment in A549 cells", "procedure": "The impact of ABC transporters on the cytotoxicity of HDAC-C1A was assessed using cell lines with differential expression of the ABC transporters and by using inhibitors."}},
  "data": [
    {"smiles": "CC(/C=C/C(=O)NO)=C\\c1ccc(NS(=O)(=O)c2ccc(N(CCCl)CCCl)cc2)cc1", "note": "[HDAC-C1A]", "values": [
      {"measurement": "fold more specific for HDAC6 compared with HDAC1", "setting": "HDAC1", "result": "approximately 17 fold"},
      {"measurement": "HSP90 protein expression", "setting": "HCT116 cells", "result": "not altered"},
      {"measurement": "acetylation markers at low concentration and early time point", "setting": "HCT116 cells; 1 μM and 4 hours", "result": "increase of acetyl-tubulin and other markers of HDAC6 inhibition"},
      {"measurement": "acetyl form of HSP90", "setting": "HCT116 cells; 4 h and 24 h, 1 μM and 10 μM", "result": "dose and time dependent increase"},
      {"measurement": "acetylation of histone H3, H4 and α-tubulin after washout", "setting": "HCT116 cells; treatment 4 hours, then washout", "result": "maintained at 4 hours after washout"},
      {"measurement": "mean GI50", "setting": "[1]", "result": "2 ± 0.4", "unit": "µg/mL"},
      {"measurement": "GI50", "setting": "KELLY", "result": 0.14, "unit": "µg/mL"},
      {"measurement": "AUC0-24h", "setting": "[2]; given orally", "result": 94000, "unit": "ng·h/mL"},
      {"measurement": "Cmax", "setting": "[2]; given orally", "result": 700, "unit": "ng/mL"},
      {"measurement": "AUC0-24h", "setting": "[2]; i.p. injection 20 mg/kg", "result": 11200, "unit": "ng·h/mL"},
      {"measurement": "Cmax", "setting": "[2]; i.p. injection 20 mg/kg", "result": 3200, "unit": "ng/mL"},
      {"measurement": "dose proportionality of pharmacokinetics", "setting": "[2]; i.p. injection, up to 160 mg/kg", "result": "dose proportionate"},
      {"measurement": "oral bioavailability", "setting": "[2]; in vivo, po", "result": 16, "unit": "%"},
      {"measurement": "stability after administration", "setting": "[2]; oral, parenteral and intravenous, 24 h last time point", "result": "stable"},
      {"measurement": "body weight loss", "setting": "[3]; 80 mg/kg/day, in some animals, at 7 days, treatment stopped", "result": 10, "unit": "%"},
      {"measurement": "Tumour Growth Delay (TGD2x)", "setting": "[3]; i.p. 80 mg/kg/day", "result": "3 ± 0.3", "unit": "days"},
      {"measurement": "Tumour Growth Inhibition (TGI) compared with vehicle", "setting": "[3]; i.p. 80 mg/kg/day", "result": 74, "unit": "%"},
      {"measurement": "P-AKT levels", "setting": "IGROV-1", "result": "increased"},
      {"measurement": "fold resistance (GI50 ratio) MCF7-MX vs parental MCF7", "setting": "ABCG2; ABCG2 overexpressing", "result": 2.8, "unit": "fold"},
      {"measurement": "reversal of resistance by FTC in MCF7-MX cells", "setting": "ABCG2; FTC, specific inhibitor of ABCG2", "result": 5.2, "unit": "fold"},
      {"measurement": "substrate of MRP1", "setting": "MRP1", "result": "non-substrates"}
    ]}
  ]
}
